Literature values, collected in article PMC5346970 (Journal of Medicinal Chemistry, 2017).
Several values for one entry are separate records, joined by “and”; a condition that tells them apart may be missing. Identical values can stand only once. Like-named read-outs stand apart in the source and are kept apart here.

Assays:
[1] = for conjugate level in blood: 3.6 g daily dose, all six subjects
[2] = tested on: Alzheimer’s disease; details: for mean plasma level three hours post-treatment / mean baseline plasma level at 24 weeks: LC/MS/MS; for mean plasma level three hours post-treatment: 24 weeks
[3] = tested on: Aβ; details: transmission electron microscopy, in vitro
[4] = tested on: cannabinoid receptor 1 (CB1); details: repeated experiments after retraction
[5] = tested on: amyloid-β (Aβ) fibril formation; details: ThT assay
[6] = room temperature, neutral pH
[7] = tested on: tau fibril formation
[8] = tested on: Caco-2 model system
[9] = tested on: CB2; details: repeated experiments after retraction
[10] = target: AmpC β-lactamase
[11] = tested on: HAT PCAF
[12] = mice fed diets poor in iron
[13] = synthetic 1, rats
[14] = tested on: SERCA (sarcoplasmic/endoplasmic reticulum calcium) pump; details: previously reported
[15] = tested on: histone methyltransferase G9a; details: counterscreen
[16] = target: malate dehydrogenase
[17] = tested on: HIV-2 protease
[18] = tested on: GSK-3β; details: no DTT, 30–90 min incubation
[19] = tested on: murine macrophage cells, J774.1; details: read-out: cytotoxicity IC50; murine macrophage cell line
[20] = tested on: mutant CFTR (ΔF508 mice); details: 45 mg kg^–1 day^–1 oral; not reproduced by independent lab (ref 139)
[21] = tested on: HAT Gcn5; details: in vitro
[22] = at 2 h, one individual, single 12 g oral dose
[23] = depending on solvent and method
[24] = tested on: advanced pancreatic cancer; details: 8 g/day oral, steady state on day 3

For `O=S(=O)(O)O` [Sulfate], the “conjugate level in blood” value [1] is given as 8.9 ± 0.7 nmol/L.
For `COc1cc(/C=C/C(=O)CC(=O)/C=C/c2ccc(O[C@@H]3O[C@H](C(=O)O)[C@@H](O)[C@H](O)[C@H]3O)c(OC)c2)ccc1O` [glucuronidated 1], the “mean plasma level three hours post-treatment” value [2] is listed as 96.05 ± 26 ng/mL and the “conjugate level in blood” value [1] is listed as 15.8 ± 0.9 nmol/L.
In the case of “(1E,6E)-1,7-bis(4-hydroxy-3-methoxyphenyl)-1,6-heptadiene-3,5-dione [Compound 1]”, the “effect on aggregation of Aβ” value [3] is listed as “does not affect the aggregation”, the “inhibition of CB1” value [4] is listed as “low micromolar inhibitor” and the IC50 [5] is listed as 1 to 64 µM. For the same molecule, the solubility in water [6] was “practically insoluble”, the “solubility in water (estimate)” value ([6]; confounded by aggregation) was 1 to 10 µg/mL and the “activity in FP secondary screen” value [7] was “inactive”. For the same molecule, the “mean baseline plasma level at 24 weeks” value [2] was 2.67 ± 1.69 ng/mL, the “mean plasma level three hours post-treatment” value [2] was 7.76 ± 3.23 ng/mL and the “plasma level by HPLC” value ([2]; one sample, 4 h after a 4 g dose, below assay LLOD) was 6 ng/mL. For the same molecule, the Papp [8] was 3.18 × 10^–6 ± 1.08 × 10^–6 cm/s, the “inhibition of CB2” value [9] was “low micromolar inhibitor” and the IC50 ([10]; with Triton X-100) was greater than 30 µM. The IC50 ([10]; without Triton X-100) was 12 µM, the “activity versus PCAF” value ([11]; counterscreen) was “failed to show any activity” and the “inhibition of PCAF” value ([11]; in vitro) was “failed to inhibit”. For the same molecule, the “t1/2 for loss of parent compound” value (pH 7.5, rt, aqueous buffer) was “approximately 20 min”, the “reduction in parent material” value (samples prepared in clear versus amber glass) was 5% and the compound degradation (solvolysis in aqueous alkaline buffer, within 30 min) was 90%. For the same molecule, the iron status [12] was “inducing a state of overt iron deficiency”, the oral bioavailability [13] was “less than 1%” and the in vitro activity [14] was 5 to 15 µM. The “activity versus G9a” value [15] was “failed to show any activity”, the IC50 ([16]; with Triton X-100) was greater than 30 µM and the IC50 ([16]; without Triton X-100) was 9 µM. For the same molecule, the IC50 ([17]; with Triton X-100) was greater than 100 µM, the IC50 ([17]; without Triton X-100) was 9 µM and the IC50 [18] was 0.066 µM. The IC50 [19] was 31 µM, the “level in blood as reported” value ([1]; 3.6 g daily, 1 h time point) was 0.6 nM and the “effect on phenotypic deficits” value [20] was “ameliorated phenotypic deficits”. The “inhibition of Gcn5” value [21] was “failed to inhibit”, the peak serum level [22] was 57.6 ng/mL and 156 nmol/L and the “pKa, first phenolic proton” value [23] was 8.5–10.4. The “pKa, second phenolic proton” value [23] was 9.5–10.7 and the plasma level [24] was 22 to 41 ng/mL.
In the case of `COc1cc(CCC(=O)CC(=O)CCc2ccc(OC3OC(C(=O)O)C(O)C(O)C3O)c(OC)c2)ccc1O` (centres unmarked) [glucuronidated tetrahydrocurcumin], the “mean plasma level three hours post-treatment” value [2] is given as 298.2 ± 140.0 ng/mL.
In the case of `COc1cc(CCC(=O)CC(=O)CCc2ccc(O)c(OC)c2)ccc1O` [tetrahydrocurcumin], the “mean baseline plasma level at 24 weeks” value [2] is listed as 6.86 ± 1.69 ng/mL and the “mean plasma level three hours post-treatment” value [2] is listed as 3.73 ± 2.0 ng/mL.
